Each structure is given as a SMILES string. “Also recorded” adds a separate entry of the source.

Consider three compounds from patent US9943502B2, “Lung cancer adjuvant therapy” (Texas Tech University System, priority 2014, dated 2018).

For data set [1], the system named is CRM1. Put plainly: CRM1 expression (qRT-PCR, Western blot) in NNK-transformed BEAS-2B cells. Format: cell-based, human. As to conditions: BEAS-2BNNK, P<0.05. Here is the method:
(§1) Human normal lung epithelial cells BEAS-2B with NNK exposure/transformation or CRM1 stable overexpression. Human normal bronchial epithelial cell line BEAS-2B was obtained from American Type Culture Collection (ATCC). (1) For short-term NNK exposure, BEAS-2B cells were treated with 0, 10, 75, or 150 μM NNK for 24 and 72 h in triplicate as described in our previous study^29; (2) BEAS-2BNNK, an in vitro transformed cell model derived from BEAS-2B, was generated by exposure to NNK (15 μM) for 24 h and then continuously sub-cultured for 9 passages. […] Similarly, BEAS-2B was transfected with vector control for comparison. BEAS-2B, BEAS-2BNNK, and BEAS-2BCRM1+ cells were cultured in LHC-9 medium (Invitrogen) containing 100 U penicillin/mL and 100 μg/mL streptomycin.
Isolation of total RNA and quantitative real-time PCR (qRT-PCR). Total RNA was isolated using an RiNeasy® plus mini kit (Qiagen) following the manufacturer protocol. One-Step RT-PCR kit with SYBR green was used for amplification of total RNA (75 ng) by following the manufacturer's protocol (BioRad) and our recent publication^32. […] Threshold cycle number (Ct value) was analyzed using CFX Manager Software (Bio-Rad). The Ct value of CRM1 was normalized to the Ct value of GAPDH from same sample and the fold change in the expression was calculated by using the ΔΔCt method. […]
Background: Real-time PCR tracks product formation cycle by cycle.

Data set [2] relates to phospho-p53 (Thr55). Kind of data set: phospho-p53 (Thr55) protein expression in BEAS-2B cells after NNK exposure. The data set is classed as cell-based, human. Here is the method:
as §1

Data set [3] has as its system lung tissues. Kind of data set: Mouse model of NNK-induced lung tumors, Western blot of lung tumors. Conditions: NNK-treated mice, P<0.01. The data set is classed as in vivo, FVB/N mice. Here is the method: Mouse model and NNK-induced lung tumors. Male FVB/N mice are an intermediately susceptible strain with regard to spontaneous lung tumor formation and have been used for studies of NNK-induced lung tumorigenesis^31. Mice were each given two intra-peritoneal injections of 3 mg NNK per week (NNK-treated group, n=8) or 0.9% saline (vehicle control group, n=8). From each group, mice were sacrificed at 32-weeks after the last NNK- or saline-treatment. Lung tissues were fresh frozen or formalin-fixed and paraffin-embedded.
On the technique in general: A western blot detects proteins with antibodies after separation by electrophoresis.

Data set [4] relates to BEAS-2B cells. Put plainly: Soft agar colony assay of NNK-transformed BEAS-2B cells. Format: cell-based, human. Conditions: NNK 15 μM for 24 h, then 9 passages (BEAS-2BNNK), P<0.05. How it is done:
as §1
Soft agar colony assay (Anchorage independent growth assay). Cells were suspended at 5×10^4 cells/mL for BEAS-2B, BEAS-2BNNK, and BEAS-2BCRM1+ or 2×10^4 cells/mL for A549 and A549CRM1− cells in growth medium containing 0.35% agar. Cell suspension was added to a 6-well tissue culture plate pre-coated with 0.7% solid agar. After 9-11 days of incubation (9 days for A549 and 11 days for BEAS-2B), the number of colonies/microscope area (6 randomly selected areas/well) was counted and their sizes were analyzed using cell staining (0.005% Crystal Violet) by microscope. This study was done in triplicate.

Data set [5] relates to A549 cells. Put plainly: Array-based SYBR Green RT-PCR (RT2 Profiler PCR array, Human Cancer Drug Targets, 84 genes). Format: cell-based. Here is the method: Array-based SYBR® Green RT-PCR. Constitutive gene expression profiling was performed using the RT^2 Profiler™ PCR array to analyze the expression of 84 genes involving in cancer signal pathways (Human Cancer Drug Targets, Qiagen) based on manufacturer's instructions and our previous publications^33, 34. Studies were performed in duplicate for each group.

The subject of data set [6] is lung cancer A549 cells xenografts. Kind of data set: Treatment of mouse xenografts: tumor growth. The data set is classed as in vivo, female athymic mice. As to conditions: intra-tumoral injection three times per week; Cis 2.5 mg/Kg, LMB 2 μg/Kg. Here is the method: Xenograft animal model. The handling of animals was in accordance with the Institutional Animal Care and Use Committee. Female athymic mice, 7-8 weeks of age and 23.5 g in weight (Charles River Laboratory) received subcutaneous injection of 1×10^6 A549 or A549CRM1− cells in the lower flank (n=8/group). Tumor volume was measured by a digital caliper (Thermo Fisher Scientific). The major longitudinal diameter (length) and the major transverse diameter (width) were determined. Tumor volume was calculated based on caliper measurements by the following formula: Tumor volume=½ (length×width^2).
(§2) Treatment of mouse xenografts. Thirty-two female athymic mice, 7-8 weeks of age and 23.5 g in weight (strain code 088, Charles River Laboratory) were each injected subcutaneously with 1×10^6 lung cancer A549 cells in the lower flank. […] All injections were carried out for three times per week. Mice body weights and tumor sizes were measured three times per week.

Data set [7] relates to normal bronchial epithelial cells. As to conditions: cited from earlier work.
Data set [8] deals with A549 cells. Put plainly: Analysis of cell cycle by flow cytometry. The data set is classed as cell-based. Conditions: 25 μM cisplatin and/or 0.5 nM LMB, 24 and 48 h. Here is the method: Analysis of cell cycle by flow cytometry. The cells were harvested after 24 and 48 h of treatment. […] Cell cycle analysis was conducted by a Guava EasyCyte™ Flow Cytometer (Millipore) as previously described^32, 33. Each sample was run in triplicate and each experiment was repeated three times.
Background: In flow cytometry, cells or beads pass a laser one at a time.

The conditions of data set [9]: in vivo; cited from earlier work.
Data set [10] has as its system lung cancer cells. As to conditions: cited from earlier work.
The nature of data set [11]: Treatment of mouse xenografts: body weight and side effects. The data set is classed as in vivo, female athymic mice. Conditions: two weeks after treatment; without deteriorating behavior and health condition. Here is the method:
as §2

For data set [12], the system named is A549 cells. Kind of data set: Western blot analyses of PARP1, p21 and survivin. Format: cell-based. As to conditions: 24 and 48 h, P<0.05. How it is done:
Western blot analyses. […] Immunoblotting was performed using different primary antibodies and α-tubulin as the internal control.

In data set [13] the test system is A549CRM1− cells. Put plainly: Cell viability assay (MTT). Format: cell-based. Conditions: FIG. 4A, P<0.05.
Method: Cell viability assay. Cell viability was evaluated using the MTT (3-(4,5-dimethylthiazol-2-yl)-2,5-diphenyltetrazolium bromide) assay as previously described^29, 33. […] Studies were performed independently in triplicate.
[14] abbreviates: cisplatin 10 and 25 μM with or without 0.5 nM LMB.

For `CN(CCCC(=O)c1cccnc1)N=O` [NNK, 4-(methylnitrosamino)-1-(3-pyridyl)-1-butanone], in data set [1], the “CRM1 expression at the mRNA level compared to vehicle-treated BEAS-2B cells” value amounted to 2.6 folds and the “CRM1 expression at the protein level compared to vehicle-treated BEAS-2B cells” value is around 1.5 folds. The “phosphorylated-p53 (p-p53) at Thr55 in NNK-transformed cells” value in data set [2] (BEAS-2BNNK cells, FIG. 2B) is “overexpressed”. In addition, in data set [2] (NNK 10, 75 and 150 μM for 24 and 72 h, P<0.05), the “protein expression levels of p-p53 at Thr55 compared to vehicle-treated BEAS-2B cells” value is given as “dose-dependent decrease”. For the same compound, the “CRM1 expression in lung tumor tissues compared with normal tissues” value in data set [3] (32 weeks after last treatment) is “increased CRM1 expression”. In data set [3], the “p-p53 at Thr55 in lung tumors compared with normal lung tissues” value is given as “significant increase”. For the same compound, the “soft agar colony number and colony size compared with vehicle-treated BEAS-2B cells” value in data set [4] was “significant increase in both colony number and colony size”.
With `CCC(=C/[C@H](C)C/C=C/C(C)=C/[C@@H](C)C(=O)[C@@H](C)[C@H](O)[C@@H](C)C/C(C)=C/C(=O)O)/C=C/[C@@H]1OC(=O)C=C[C@@H]1C` [LMB, leptomycin B], the “gene expression profile compared to the control group” value in [5] (0.5 nM LMB) is listed as “No significant difference”. Besides, in data set [6], the “tumor growth compared to the vehicle-treated control” value is listed as “growth curves followed a similar trend”. Besides, the “effects on normal bronchial epithelial cells” value in data set [7] was “minimal effects”. Besides, in [8], the “cell cycle distribution compared with the control” value is recorded as “did not alter the cell cycle distribution”. Besides, in data set [9], the “side effects in the phase I clinical trial” value was “malaise and anorexia”. For the same compound, the “effect on lung cancer cells” value in data set [10] was “inhibit lung cancer cell growth and induce cytotoxicity”.
Turning to `N.N.[Cl][Pt][Cl]` [Cis, cisplatin], in [5] (25 μM cisplatin, P<0.05), the “expression level of AURKA, AURKB, CDK1, HIF1A, MDM4, PLK1, PLK4, and TNKS compared to the control” value is recorded as “significantly decreased expression level”; the “expression of CTSB, GRB2, MDM2, and NF-κB compared to the control” value is given as “increased expression”. For the same compound, the NF-κB expression result in data set [5] (A549 cells) was “increased expression of NF-κB”. Moreover, the “tumor growth compared to the vehicle-treated control” value in data set [6] is “significant decrease in tumor growth; also recorded: significantly delayed tumor growth”. Further, the “cell cycle distribution compared with the control” value in data set [8] is “significantly higher proportion of cells in S and G2/M phases”. For the same compound, in data set [11], the “body weight for mice” value is given as “started to decrease gradually”. Further, in [12], the “survivin expression level compared to controls” value is recorded as “significantly decreased”. Further, in data set [12] (setting [14]), the “PARP1 protein expression compared to vehicle-treated cells” value is “significantly increased in a dose-response manner” and the “p21 protein expression compared to vehicle-treated cells” value is on record as “significantly increased in a dose-response manner”. Besides, the “sensitivity of A549CRM1− cells compared with A549 cells” value in data set [13] is recorded as “even more sensitive”.
